Experiment: in vitro
Conditions: human, hek293t cells
Procedure: Mammalian cytotoxicity measurement was performed using Cell Titer-Glo 2.0 Cell Viability Assay (Promega, G9243) according to the manufacturer protocol. In brief, mammalian cells were seeded into 384-well white plates (Greiner, 781080) and incubated at 37°C for one day. Compounds from the Cys-Library were dispensed into the assay plate using epMotion 96. The plates were then incubated at 37°C for two days. An equal volume of Cell Titer-Glo 2.0 reagent was added into each well of the assay plate using epMotion 96 and incubated at 22°C for 10 min, followed by luminescence measurement using a Cytation 5 plate reader (BioTek).

Compound | viability at 48 h, 25 µM [%]
CCN(Cc1cccc(C)c1)C(=O)CCl [5-J16, 2-chloro-N-ethyl-N-[(3-methylphenyl)methyl]acetamide] | 1.39
CC(Cl)C(=O)N1c2ccccc2NC(=O)C1(C)C (stereo not shown) [4-C08, 4-(2-chloropropanoyl)-3,3-dimethyl-1,2,3,4-tetrahydroquinoxalin-2-one] | 69.5
N#CC(=Cc1cccnc1)C(=O)Nc1ccc(F)cc1 [8-B21, 2-cyano-N-(4-fluorophenyl)-3-(pyridin-3-yl)prop-2-enamide] | 125
C=CC(=O)N(Cc1ccc(Cl)cc1Cl)CC1CCC(O)C1 (stereo not shown) [1-B04, N-[(2,4-dichlorophenyl)methyl]-N-[(3-hydroxycyclopentyl)methyl]prop-2-enamide] | 26.4
CC(=O)N(C)c1cccc(NC(=O)C(C#N)=Cc2ccco2)c1 [9-L18, 2-cyano-3-(furan-2-yl)-N-[3-(N-methylacetamido)phenyl]prop-2-enamide] | 104
CC(=O)Nc1ccc(NC(=O)C(C#N)=Cc2cc(F)ccc2F)cc1 [8-C12, 2-cyano-3-(2,5-difluorophenyl)-N-(4-acetamidophenyl)prop-2-enamide] | 57.6
C=CC(=O)NCc1ccc(C(C)(C)C)[nH]c1=O [3-P08, N-[(6-tert-butyl-2-oxo-1,2-dihydropyridin-3-yl)methyl]prop-2-enamide] | 76.4
CC(C)(C)N(Cc1ccccc1)C(=O)CCl [5-H20, N-benzyl-N-tert-butyl-2-chloroacetamide] | 1.81
CN1C(=CC=C(C#N)C(=O)NCC2CCCO2)C(C)(C)c2ccccc21 (stereo not shown) [8-M04, 2-cyano-N-[(oxolan-2-yl)methyl]-4-(1,3,3-trimethyl-2,3-dihydro-1H-indol-2-ylidene)but-2-enamide] | 77.7
O=C(CCl)c1sccc1Cl [10-K11, 2-chloro-1-(3-chlorothiophen-2-yl)ethan-1-one] | 17
COC(=O)C1(NC(=O)CCl)CC1 [6-I06, methyl 1-(2-chloroacetamido)cyclopropane-1-carboxylate] | 101
CC(Cl)C(=O)Nc1cccc([N+](=O)[O-])c1 (stereo not shown) [6-E08, 2-chloro-N-(3-nitrophenyl)propanamide] | 98.7
C=CC(=O)N(C)CCCn1c(=O)c(C)nc2ccccc21 [1-I08, N-methyl-N-[3-(3-methyl-2-oxo-1,2-dihydroquinoxalin-1-yl)propyl]prop-2-enamide] | 76.3
CC1CC(C)CN(S(=O)(=O)c2ccc(NC(=O)CCl)cc2)C1 (stereo not shown) [4-K16, 2-chloro-N-{4-[(3,5-dimethylpiperidin-1-yl)sulfonyl]phenyl}acetamide] | 0.265
CC(C#N)Oc1ccc(C=C(C#N)C(=O)Nc2ccccc2Cl)cc1 (stereo not shown) [9-E05, N-(2-chlorophenyl)-2-cyano-3-[4-(1-cyanoethoxy)phenyl]prop-2-enamide] | 111
CS(=O)(=O)c1ccc(CNC(=O)CCl)cc1 [6-O12, 2-chloro-N-[(4-methanesulfonylphenyl)methyl]acetamide] | 1.69
C=CC(=O)NCC1CCN(C)C1=O (stereo not shown) [2-B05, N-[(1-methyl-2-oxopyrrolidin-3-yl)methyl]prop-2-enamide] | 71.1
CCOc1cccc(N2CCN(C(=O)C(C)Cl)CC2)n1 (stereo not shown) [7-G07, 2-chloro-1-[4-(6-ethoxypyridin-2-yl)piperazin-1-yl]propan-1-one] | 83.5
Cc1c(C#N)c(NC(=O)CCl)n(Cc2ccco2)c1C [4-D09, 2-chloro-N-{3-cyano-1-[(furan-2-yl)methyl]-4,5-dimethyl-1H-pyrrol-2-yl}acetamide] | -0.0889
C=CC(=O)N(C)CC(=O)N1CCC(c2nc(-c3ccccc3)n[nH]2)CC1 [2-H20, N-methyl-N-{2-oxo-2-[4-(3-phenyl-1H-1,2,4-triazol-5-yl)piperidin-1-yl]ethyl}prop-2-enamide] | 67.6
CC(Cl)C(=O)N(C)Cc1nccn1Cc1ccccc1 (stereo not shown) [6-J09, N-[(1-benzyl-1H-imidazol-2-yl)methyl]-2-chloro-N-methylpropanamide] | 91.5
C=CC(=O)NCCn1nnc2ccccc21 [2-N11, N-[2-(1H-1,2,3-benzotriazol-1-yl)ethyl]prop-2-enamide] | 67.3
CC(Cl)C(=O)NC1CS(=O)(=O)Cc2ccccc21 (stereo not shown) [6-L20, 2-chloro-N-(2,2-dioxo-3,4-dihydro-1H-2lambda6-benzothiopyran-4-yl)propanamide] | 93.5
C=CC(=O)N(C)CC(=O)N1CCc2ccc(S(C)(=O)=O)cc2CC1 [2-N08, N-[2-(7-methanesulfonyl-2,3,4,5-tetrahydro-1H-3-benzazepin-3-yl)-2-oxoethyl]-N-methylprop-2-enamide] | 95.1
N#CC(=Cc1ccc(OC(F)F)cc1)C(=O)N1CCCC1 [8-L22, 3-[4-(difluoromethoxy)phenyl]-2-(pyrrolidine-1-carbonyl)prop-2-enenitrile] | 105
C=CC(=O)NCC(F)(F)c1cccnc1 [1-O12, N-[2,2-difluoro-2-(pyridin-3-yl)ethyl]prop-2-enamide] | 111

Compound | viability at 48 h, 25 µM [%]
CC(=O)N1CCC(NC(=O)C(C)Cl)c2ccc(F)cc2C1 (stereo not shown) [7-I16, N-(2-acetyl-8-fluoro-2,3,4,5-tetrahydro-1H-2-benzazepin-5-yl)-2-chloropropanamide] | 92.3
C=CC(=O)N(C)Cc1ncc(C(F)(F)F)n1C [2-D19, N-methyl-N-{[1-methyl-5-(trifluoromethyl)-1H-imidazol-2-yl]methyl}prop-2-enamide] | 70.6
COc1ccc(C=C(C#N)C(=O)Nc2ccccc2OC)cc1 [8-G09, 2-cyano-N-(2-methoxyphenyl)-3-(4-methoxyphenyl)prop-2-enamide] | 80.4
O=C(CCl)N(Cc1ccnn1C1CCC1)C1CC=CCC1 (stereo not shown) [5-I14, 2-chloro-N-[(1-cyclobutyl-1H-pyrazol-5-yl)methyl]-N-(cyclohex-3-en-1-yl)acetamide] | 0.326
CSc1ccc(C(=O)CCl)cc1 [10-E07, 2-chloro-1-[4-(methylsulfanyl)phenyl]ethan-1-one] | 1.88
COCc1ncc2c(n1)CC1CCC2N1C(=O)C(C)Cl (stereo not shown) [7-M20, 2-chloro-1-[5-(methoxymethyl)-4,6,12-triazatricyclo[7.2.1.0,2,7]dodeca-2,4,6-trien-12-yl]propan-1-one] | 77
COc1ccc(C=C(C#N)C(=O)Nc2ccc(C)cc2)cc1O [9-O12, 2-cyano-3-(3-hydroxy-4-methoxyphenyl)-N-(4-methylphenyl)prop-2-enamide] | 109
CNC(=O)C(C#N)=Cc1ccc(F)cc1 [9-B14, 2-cyano-3-(4-fluorophenyl)-N-methylprop-2-enamide] | 109
CC(Cl)C(=O)Nc1ccc2c(c1)OCCCO2 (stereo not shown) [4-K10, 2-chloro-N-(3,4-dihydro-2H-1,5-benzodioxepin-7-yl)propanamide] | 85.4
C[C@H]1CN(C(=O)CCl)Cc2cccn21 [5-B03, 2-chloro-1-[(4S)-4-methyl-1H,2H,3H,4H-pyrrolo[1,2-a]pyrazin-2-yl]ethan-1-one] | 0.688
C=CC(=O)NCc1n[nH]c(=O)n1C1CC1 [3-N08, N-[(4-cyclopropyl-5-oxo-4,5-dihydro-1H-1,2,4-triazol-3-yl)methyl]prop-2-enamide] | 80
COc1ccc2ccccc2c1C=C(C#N)C(=O)N1CCCC1 [8-P12, 3-(2-methoxynaphthalen-1-yl)-2-(pyrrolidine-1-carbonyl)prop-2-enenitrile] | 75.4
Cc1ccc(C=C(C#N)C(=O)NC(N)=O)o1 [8-D21, {2-cyano-2-[(5-methylfuran-2-yl)methylidene]acetyl}urea] | 101
CCc1nocc1CN(C)C(=O)C(C)Cl (stereo not shown) [7-M06, 2-chloro-N-[(3-ethyl-1,2-oxazol-4-yl)methyl]-N-methylpropanamide] | 95.1
Cc1cc(C(C)N(Cc2c(C)noc2C)C(=O)CCl)c(C)o1 (stereo not shown) [5-E16, 2-chloro-N-[(3,5-dimethyl-1,2-oxazol-4-yl)methyl]-N-[1-(2,5-dimethylfuran-3-yl)ethyl]acetamide] | 1.18
C=CC(=O)N1CCN(S(=O)(=O)c2ccc(C(C)(C)C)cc2)CC1 [3-A19, 1-[4-(4-tert-butylbenzenesulfonyl)piperazin-1-yl]prop-2-en-1-one] | 24.5
C=CCN(Cc1ccc(Cl)s1)C(=O)CCl [5-M05, 2-chloro-N-[(5-chlorothiophen-2-yl)methyl]-N-(prop-2-en-1-yl)acetamide] | 0.327
CC(Cl)C(=O)N1CC(S(=O)(=O)Nc2ccccc2)C1 (stereo not shown) [7-G05, 1-(2-chloropropanoyl)-N-phenylazetidine-3-sulfonamide] | 102
O=C(CCl)Nc1c(Cl)cc(Cl)cc1Cl [5-B16, 2-chloro-N-(2,4,6-trichlorophenyl)acetamide] | 123
Cc1cc(C=C(C#N)C(=O)Nc2ccccc2)c(C)n1CC(C)C [9-A07, 2-cyano-3-[2,5-dimethyl-1-(2-methylpropyl)-1H-pyrrol-3-yl]-N-phenylprop-2-enamide] | 115
CC(Cl)C(=O)NC1Cc2ccccc2N(C(=O)C(F)(F)F)C1 (stereo not shown) [7-N19, 2-chloro-N-[1-(2,2,2-trifluoroacetyl)-1,2,3,4-tetrahydroquinolin-3-yl]propanamide] | 87.1
CC(Cl)C(=O)N1CCCC1Cc1cccc(F)c1F (stereo not shown) [7-E19, 2-chloro-1-{2-[(2,3-difluorophenyl)methyl]pyrrolidin-1-yl}propan-1-one] | 61.3
C=CC(=O)Nc1cccc2ccccc12 [1-G10, N-(naphthalen-1-yl)prop-2-enamide] | 53.4
CC(Cl)C(=O)N1CCn2cccc2C1c1ccccc1 (stereo not shown) [7-E11, 2-chloro-1-{1-phenyl-1H,2H,3H,4H-pyrrolo[1,2-a]pyrazin-2-yl}propan-1-one] | 97.1
O=C(CCl)NCCc1cccs1 [5-L09, 2-chloro-N-[2-(thiophen-2-yl)ethyl]acetamide] | 90.7
C=CC(=O)N(CCC(N)=O)C1CCOc2ccccc21 (stereo not shown) [3-F13, N-(2-carbamoylethyl)-N-(3,4-dihydro-2H-1-benzopyran-4-yl)prop-2-enamide] | 69.2
